Laboratory results reported in patent US8674109B2, “Pesticidal compositions” (Dow AgroSciences, LLC., priority 2009, dated 2014).

How the values were obtained:
Format in all cases: in vivo
[1] = tested on: green peach aphid (Myzus persicae); experiment: Insecticidal test for green peach aphid in foliar spray assay on cabbage seedlings
In short: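 Cabbage seedlings carrying 20-50 aphids (adults and nymphs) were sprayed to runoff with compound at 200 ppm in acetone/methanol diluted in 0.025% Tween 20, with four pots per treatment. After three days at about 25 °C and 40% RH, live aphids were counted. Percent control was Abbott-corrected against solvent-check plants.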

[2] = tested on: corn earworm (CEW; Helicoverpa zea: Lepidoptera); experiment: Insecticidal test for corn earworm, 128-well diet tray assay
In short: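 Second-instar larvae, three to five per well, placed on artificial diet treated with 50 μg/cm^2 compound applied in 90:10 acetone-water and dried. Held six days at 25° C., 14:10 light-dark. Percent mortality scored per well and averaged over eight wells.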

[3] = tested on: beet armyworm (BAW; Spodoptera exigua: Lepidoptera); experiment: Insecticidal test for beet armyworm, 128-well diet tray assay
In short: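 Three to five second-instar larvae per well fed on artificial diet surface-treated with 50 μg/cm^2 compound (applied in 90:10 acetone-water, dried). Trays were held six days at 25 °C, 14:10 light-dark. Percent mortality was averaged across eight wells.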

Row | Compound | % Mortality GPA 200 ppm [1] | % Mortality CEW 50 μg/cm^2 [2] | % Mortality BAW 50 μg/cm^2 [3]
1 | O=C(Nc1ccc(-c2ncn(-c3ccc(OC(F)(F)F)cc3)n2)cc1)Oc1ccccc1 [Compound 122] | B (Less than 80) | A (50-100) | A (50-100)
2 | Cc1ccc(OC(=O)Nc2ccc(-c3ncn(-c4ccc(OC(F)(F)F)cc4)n3)cc2)cn1 [Compound 123] | B (Less than 80) | B (Less than 50) | B (Less than 50)
3 | O=C(Nc1ccc(-c2ncn(-c3ccc(OC(F)(F)F)cc3)n2)cc1)Oc1ccccc1C(F)(F)F [Compound 124] | B (Less than 80) | A (50-100) | A (50-100)
4 | Cc1cc(Cl)ccc1OC(=O)Nc1ccc(-c2ncn(-c3ccc(OC(F)(F)F)cc3)n2)cc1 [Compound 128] | B (Less than 80) | A (50-100) | A (50-100)
5 | O=C(Nc1ccc(-c2ncn(-c3ccc(OC(F)(F)F)cc3)n2)cc1)Oc1cccc(-c2ccccc2)c1 [Compound 129] | B (Less than 80) | A (50-100) | A (50-100)
6 | CCN(C(=O)OC(C)c1ccc(C(F)(F)F)nc1)c1ccc(-c2ncn(-c3ccc(OC(F)(F)F)cc3)n2)cc1 (stereo not drawn) [Compound 130, 1-(6-(trifluoromethyl)pyridin-3-yl)ethyl ethyl(4-(1-(4-(trifluoromethoxy)phenyl)-1H-1,2,4-triazol-3-yl)phenyl)carbamate] | B (Less than 80) | A (50-100) | A (50-100)
7 | COC(=S)Nc1ccc(-c2ncn(-c3ccc(OC(F)(F)F)cc3)n2)cc1 [Compound 132, O-methyl 4-(1-(4-(trifluoromethoxy)phenyl)-1H-1,2,4-triazol-3-yl)phenylcarbamothioate] | B (Less than 80) | B (Less than 50) | A (50-100)
8 | CC(OC(=S)Nc1ccc(-c2ncn(-c3ccc(OC(F)(F)F)cc3)n2)cc1)c1ccc(C(F)(F)F)nc1 (stereo not drawn) [Compound 133, O-1-(6-(trifluoromethyl)pyridin-3-yl)ethyl 4-(1-(4-(trifluoromethoxy)phenyl)-1H-1,2,4-triazol-3-yl)phenylcarbamothioate] | B (Less than 80) | A (50-100) | A (50-100)
9 | Fc1ccc(OC(=S)Nc2ccc(-c3ncn(-c4ccc(OC(F)(F)F)cc4)n3)cc2)cc1 [Compound 134, O-4-fluorophenyl 4-(1-(4-(trifluoromethoxy)phenyl)-1H-1,2,4-triazol-3-yl)phenylcarbamothioate] | B (Less than 80) | B (Less than 50) | B (Less than 50)
10 | COC(=O)Nc1ccc(-c2ncn(-c3ccc(OC(F)(F)C(F)(F)F)cc3)n2)cc1 [Compound 135, methyl 4-(1-(4-(perfluoroethoxy)phenyl)-1H-1,2,4-triazol-3-yl)phenylcarbamate] | B (Less than 80) | A (50-100) | A (50-100)
11 | CN(C(=O)Oc1ccc([N+](=O)[O-])cc1)c1ccc(-c2ncn(-c3ccc(OC(F)(F)F)cc3)n2)cc1 [Compound 136, methyl-{4-[1-(4-trifluoromethoxyphenyl)-1H-[1,2,4]triazol-3-yl]-phenyl}-carbamic acid 4-nitrophenyl ester] | B (Less than 80) | B (Less than 50) | B (Less than 50)
